Laboratory results from EP0247464A1, “New quinolone compounds and a process for the preparation thereof” (FUJISAWA PHARMACEUTICAL CO., LTD., priority 1986, dated 1987).
Values after ≈ are worked out from the molar mass of the structure shown.

Legend:
[1] = test system: Mycoplasma pulmonis PG-22; assay: Minimal Inhibitory Concentration (MIC), antimycoplasmal activity, agar dilution method; format: cell-based; conditions: PG22, 37°C for 3 to 4 days, 5 per cent carbon dioxide, lowest concentration completely inhibiting colony growth
Method: MICs of test compound were obtained by the agar dilution method.
Agar plates contained two-fold decremental dilutions of the test compound, ranging from 0.05 to 100 pg/ml. The inoculum (0.01 ml, containing approximately 10^5 CFU/ml of liquid medium which had been cultured at 37°C for 3 days) was plated on moisture-free media surfaces. Plates were placed in a humidified atmosphere of 5 per cent carbon dioxide and 95 per cent air, and incubated at 37°C for 3 to 4 days. The colonies grown on the plate were observed under a low microscopic magnification (x60).

Vibrio anguillarum NP-1 = assay: Minimal Inhibitory Concentration (MIC), antibacterial activity against fish-disease strain; format: cell-based; conditions: NP1, 2.5% sodium chloride added Heart Infusion Agar, 20 hours incubation at 25°C
Method: MICs againstvibrio anguillarum originated in fish diseases were obtained by the following method. An overnight culture broth of each strain was diluted 10-fold (approximately 10^6 cells/ml) and was stamped on 2.5% sodium chloride added Heart Infusion Agar containing graded concentrations of the test compounds, and MICs were expressed in terms of pg/ml after 20 hours incubation at 25°C.

Acute toxicity in mice = format: in vivo; conditions: 100 mg/kg injected into lateral vein, ICR-strain male mouse, 5 mice, observed for 7 days
Method: The test compound (16 mg) was dissolved in 1N NaOH (0.1 ml) and steril distilled water (3.9 ml).

For `O=C(O)c1cn(C2CC2)c2c(F)c(N3CCNCC3)c(F)c(F)c2c1=O` [compound (I-d), 1-Cyclopropyl-5,6,8-trifluoro-7-(1-piperazinyl)-4-quinolone-3-carboxylic acid], the MIC [1] was 0.1 µg/mL (≈ 0.272 µM), the MIC (Vibrio anguillarum NP-1) was 0.1 µg/mL (≈ 0.272 µM) and the “Survivals / test mice” value (Acute toxicity in mice) was 5 / 5.
